The half-life is the time needed for the level to fall by half in the phase considered.

Entries after “also recorded” stand apart in the source; their conditions may differ.

The record followed here is patent US20090048216A1, “INTRAVENOUS AND ORAL DOSING OF A DIRECT-ACTING AND REVERSIBLE P2Y12 INHIBITOR” (Portola Pharmaceuticals, Inc., priority 2007, published 2009).

The subject of series [1] is ADP-induced human platelet aggregation. Kind of series: Inhibition of ADP-mediated platelet aggregation in vitro (PRP assay). It is filed as cell-based. Particulars: human platelet-rich plasma. How it is done:
For preparation of human platelet-rich plasma for aggregation assays, human venous blood was collected from healthy, drug-free volunteers into 0.38% sodium citrate (0.013 M, pH 7.0 final). […] This preparation of PRP can subsequently be used for aggregation assays in either a 96-well plate or standard cuvette aggregometry.
For cuvette light transmittance aggregation assays, serial dilutions (1:3) of test compounds were prepared in 100% DMSO in a 96 well V-bottom plate (final DMSO concentration in the cuvette was 0.6%). […] The aggregation reaction is recorded for ˜5 min, and maximum extent of aggregation is determined by the difference in extent of aggregation at baseline, compared to the maximum aggregation that occurs during the five minute period of the assay. Inhibition of aggregation was calculated as the maximum aggregation observed in the presence of inhibitor, compared to that in the absence of inhibitor. […]
Inhibition of ADP-dependent aggregation was also determined in 96-well flat-bottom microtiter plates using a microtiter plate shaker and plate reader similar to the procedure described by Frantantoni et al., Am. […] The OD of the samples is then determined at 450 nm using a microtiter plate reader (Softmax, Molecular Devices, Menlo Park, Calif.) resulting in the 0 minute reading. […]

Another series concerns the target T1, P2Y12 receptor (Homo sapiens, UniProt Q9H244).
T1 construct: endogenous in cells; host or cells: apyrase-washed human platelets (outdated from hospital blood banks, or fresh)
Kind of series: platelet ADP receptor binding assay (ARB): inhibition of [3H]2-MeS-ADP binding to platelets. Particulars: whole platelets. How it is done: 1. The Ability of Candidate Molecules to Inhibit the Binding of [3H]2-MeS-ADP to the P2Y12 Receptor on Platelets was Determined Using a Radioligand Binding Assay.
Utilizing this assay the potency of inhibition of such compounds with respect to [^3H]2-MeS-ADP binding to whole platelets is determined. Under the conditions described in II (3) below, the binding of [^3H]2-MeS-ADP is solely due to the interaction of this ligand with the P2Y12 receptor, in that all the specific binding measured in this assay is compatable with a P2Y12 antagonist (i.e., the specific binding is reduced to background levels by competition with an excess of P2Y12 antagonist, with no competition of binding when a P2Y1 antagonist is pre-incubated with the platelet preparation). […]
A platelet ADP receptor binding assay (ARB) using the tritiated potent agonist ligand [3H]2-MeS-ADP (Jantzen, H. M. et al. (1999) Thromb. Hemost. 81:111-117) has been adapted to the 96-well microtiter format. […] Total binding is determined in the absence of test compounds. […] The platelet-bound radioactivity on the filtermats is determined in a scintillation counter (Microbeta 1450, Wallac Inc., Gaithersburg, Md.). Specific binding is determined by subtraction of non-specific binding from total binding, and specific binding in the presence of test compounds is expressed as % of specific binding in the absence of test compound dilutions. […]

The conditions of series [2]: one week, 40° C., 75% RH.
The nature of series [3]: Accelerated stability of solid forms.
The test system of series [4] is ADP-induced platelet aggregation. Particulars: IV, at the higher dosages.
Protocol: (§1) Human venous blood was collected in a plastic syringe and immediately transferred to a plastic tube containing a fixed amount of anticoagulant (e.g., 5 μM (final) of a proprietary Portola anticoagulant C921-78 (a factor Xa inhibitor (see, Betz A, Wong P W, Sinha U. Inhibition of factor Xa by a peptidyl-alpha-ketothiazole involves 2 steps: evidence for a stabilizing conformational change. Biochemistry. 1999; 38: 14582-14591)) and mixed gently by inversion. Platelet-rich plasma (PRP) was prepared by centrifugation of whole blood at 160×g for 20 minutes at room temperature. The PRP layer was removed, transferred to a new tube, and the platelet count was adjusted, if necessary, to achieve a platelet concentration of ˜3×10^8 platelets/ml using platelet-poor plasma (PPP). PPP is prepared by centrifugation of the remaining blood sample (after removal of PRP) for 20 minutes at 800×g. This preparation of PRP was used for standard light transmittance aggregometry assays. […] While stirring the PRP, a sufficient volume of adenosine diphosphate (ADP, Sigma-Aldrich) was added to achieve a final concentration of 10 μM in the cuvette, and the change in light transmittance was recorded for 6 minutes. The maximum extent of aggregation as well as the final (6 min after initiation of the aggregation reaction) extent of aggregation was determined from each reaction.
Series [5] can be described thus: Tolerability and safety of single intravenous doses in human subjects. Format: in vivo. From the text:
To determine the tolerability, the pharmacokinetic (PK) and pharmacodynamic (PD) effects of single ascending IV doses of a compound of Formula I (the potassium salt of polymorph B, or PRT128) in healthy subjects, ages 18-50.

Series [6] is described as follows: Tolerability and safety of single oral doses in human subjects. The following applies: oral doses 10-800 mg.
Protocol: A single center, double-blind, placebo-controlled study of a compound of Formula I was conducted in human subjects. The compound of Formula I was the potassium salt (Polymorph B) dissolved in water.
The subject of series [7] is ADP induced platelet aggregation.
Protocol: (§2) Human venous blood was collected in a plastic syringe and immediately transferred to a plastic tube containing a fixed amount of anticoagulant (e.g., 5 μM (final) of a proprietary Portola anticoagulant C921-78 (a factor Xa inhibitor (see, Betz A, Wong P W, Sinha U. Inhibition of factor Xa by a peptidyl-alpha-ketothiazole involves 2 steps: evidence for a stabilizing conformational change. Biochemistry. 1999; 38: 14582-14591)) and mixed gently by inversion. Platelet-rich plasma (PRP) was prepared by centrifugation of whole blood at 160×g for 20 minutes at room temperature. The PRP layer was removed, transferred to a new tube, and the platelet count was adjusted, if necessary, to achieve a platelet concentration of ˜3×10^8 platelets/ml using platelet-poor plasma (PPP). PPP is prepared by centrifugation of the remaining blood sample (after removal of PRP) for 20 minutes at 800×g. This preparation of PRP was used for standard light transmittance aggregometry assays. A fixed volume of PRP (0.3-0.5 mls) was transferred to an aggregometry cuvette, and the same volume of PPP was used to blank the machine. While stirring the PRP, a sufficient volume of adenosine diphosphate (ADP, Sigma-Aldrich) was added to achieve a final concentration of 10 μM in the cuvette, and the change in light transmittance was recorded for 6 minutes. The maximum extent of aggregation as well as the final (6 min after initiation of the aggregation reaction) extent of aggregation was determined from each reaction.
(§3) The compound of Formula I was the potassium salt (Polymorph B) dissolved in water.
The nature of series [8]: Pharmacokinetics of single IV doses in human subjects. Format: in vivo. The following applies: IV 1-40 mg.
Series [9] is described as follows: Bleeding time (Surgicutt device) after IV infusion. It is filed as in vivo, human. The procedure:
Bleeding time was measured using the Surgicutt device at 25 min (Cmax) and 8 hrs post dose. […] However, this effect was reversed by 8 hrs post dosing.

The nature of series [10]: Pharmacokinetics of single oral liquid doses in human subjects. It is filed as in vivo.
The test system of series [11] is ADP-induced platelet aggregation. Put plainly: animal or person. Particulars: Homo sapiens, iv, 0.1 h, read-out: IC50 for inhibition of ADP-induced late (6 min) platelet aggregation vs plasma concentration (Emax model).
Protocol: as §1
Series [12] has as its system collagen-induced platelet thrombosis. Put plainly: Real Time Thrombosis Profiler (RTTP) ex vivo after oral dosing. It is filed as in vivo, human. The following applies: 6 hours post dosing. The procedure:
Rhodamine 6G (1.25 μg/ml final concentration) was added to the blood, mixed by gentle inversion, and the tube was incubated at ˜37° C. for 20 min. Subsequently, the rhodamine-labeled blood was perfused through a rectangular glass capillary coated with type III collagen at an arterial shear rate (˜1600 sec^−1) and the extent of thrombus formation on the collagen surface was monitored for 5-7 min by the accumulation of fluorescently-labeled platelets using a video camera. The extent of the overall thrombotic process (e.g., accumulation of fluorescently-labeled platelets over time) was determined by analysis of various parameters derived from the curve generated from mean fluorescence intensity vs time (sec). These parameters may include slope, area under the curve, and endpoint.
In yet another part of the study, the effects of the oral treatments in the human subjects was investigated using a Real Time Thrombosis Profiler (RTTP) as the ex vivo assay method. The set up and principles of operation of the RTTP are depicted in FIGS. 26A, B, and C. There was a dose-dependent decrease in the RTTP collagen-induced platelet thrombosis for the subjects given the compound. A dose of 100 mg of the compound produced about a 70% inhibition. A dose of 30 mg of the compound produced a 53 percent inhibition.

In series [13] the test system is ADP induced platelet aggregation. Kind of series: animal or person. Particulars: Homo sapiens, po, 0.1 h, read-out: IC50 of inhibition of ADP-induced platelet aggregation vs plasma concentration (PK-PD), oral study, aggregation at 6 minutes, ex vivo.
Protocol: as §2, §3
The subject of series [14] is collagen induced platelet aggregation. Kind of series: Ex vivo collagen-induced platelet aggregation after oral dosing, with or without aspirin. It is filed as in vivo, human. Particulars: aspirin alone, predosed for three days at 325 mg/day. The text has this: In a further aspect of the study, the effect of aspirin and the compound together on the inhibition of collagen-induced platelet aggregation was investigated.

T1 sequence (Q9H244 whole entry): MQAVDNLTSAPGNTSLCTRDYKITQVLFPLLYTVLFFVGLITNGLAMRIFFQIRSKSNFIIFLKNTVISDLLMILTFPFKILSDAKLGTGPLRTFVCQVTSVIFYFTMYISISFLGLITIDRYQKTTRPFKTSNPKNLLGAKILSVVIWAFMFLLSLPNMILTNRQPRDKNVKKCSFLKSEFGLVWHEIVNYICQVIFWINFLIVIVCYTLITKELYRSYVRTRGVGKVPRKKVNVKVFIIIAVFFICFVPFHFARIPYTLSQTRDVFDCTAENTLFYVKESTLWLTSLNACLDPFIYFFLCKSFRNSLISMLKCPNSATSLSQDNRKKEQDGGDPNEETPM

As for `CNc1cc2[nH]c(=O)n(-c3ccc(NC(=O)NS(=O)(=O)c4ccc(Cl)s4)cc3)c(=O)c2cc1F` [Example 2], the IC50 in series [1] was less than 10 µM; on P2Y12 receptor, less than 50 nM.

In the case of `CNc1cc2[nH]c(=O)n(-c3ccc(NC(=O)[N-]S(=O)(=O)c4ccc(Cl)s4)cc3)c(=O)c2cc1F.[K+]` [Form A], the “change in chemical purity in accelerated stability test” value in [2] was “No change”. Also, the “stability of solid form” value in [3] was “stable”.

For the compound `CNc1cc2[nH]c(=O)n(-c3ccc(NC(=O)[N-]S(=O)(=O)c4ccc(Cl)s4)cc3)c(=O)c2cc1F.[K+]` [PRT128], the “maximum inhibition of ADP-induced platelet aggregation measured at six minutes” value in series [4] is reported as 100%; in [7] (oral, at the higher dosages), 100%. Moreover, in [5] (IV 1-40 mg), the ECG entry is reported as “No significant changes”. Further, the serious adverse events entry in series [5] (IV 1-40 mg) was “No serious adverse events”; in series [6] it was “no serious adverse events”. Also, the “standard clinical chemistry, hematology and coagulation labs” value in [5] (IV 1-40 mg) is “no clinically significant changes or trends”. Further, in series [5] (IV 1-40 mg), the vital signs result is reported as “No significant changes or trends”. Also, the tolerability entry in series [5] (IV 1-40 mg over 20 minutes, human) is on record as “well tolerated”; in [5] (IV bolus up to 45 mg), “equally well tolerated”; in series [6], “well tolerated”. Moreover, the “inhibition of ADP-induced platelet aggregation” value in series [7] (oral 100 mg, four hours post dose) is on record as 60%. Also, in [7] (oral study, aggregation at 6 minutes, ex vivo, listed as potassium salt, potassium salt), the “IC50 of inhibition of ADP-induced platelet aggregation vs plasma concentration (PK-PD)” value is “≈ 450 ng/ml”. Further, the “dose achieving maximum effect (maximum amplitude aggregation)” value in [7] (oral, four hour time point) is “about 200 mg”. In addition, the “drug exposure with dose” value in series [8] is listed as “dose proportional”. Besides, the “dose at which pre-defined bleeding time stopping criteria (>20 min and 3 fold prolongation from baseline) were reached” value in series [9] came out at 40 mg. Moreover, the bleeding time result in series [9] (25 min (Cmax)) was “prolonged dose-dependently”. In addition, the “bleeding time effect at 8 hrs” value in series [9] (8 hrs post dose, potassium salt) was “reversed; also recorded: returned to baseline”. Further, the “bleeding time at potential clinically therapeutic anti-thrombotic level of 40%” value in [9] (listed as studied compound, potassium salt) was “without substantially affecting bleeding time”; in series [9] (potassium salt), “did not increase bleeding time”. Also, in series [10] (oral, 10-100 mg), the “plasma PK increases with dose” value is “dose proportional”. The half-life in series [10] (plasma, single oral liquid dose, read-out: terminal half-life (converted)) is roughly 720 min. For the same compound, the IC50 was 0.601 µg/mL in [11] and roughly 0.451 µg/mL in series [13]. Also, the figures for the “inhibition of RTTP collagen-induced platelet thrombosis” value in [12] (oral 30 mg) and in series [12] (oral 100 mg) were 53% and roughly 70%, respectively.

With `CNc1cc2[nH]c(=O)n(-c3ccc(NC(=O)[N-]S(=O)(=O)c4ccc(Cl)s4)cc3)c(=O)c2cc1F.[Na+]` [amorphous form of the sodium salt], the “change in chemical purity in accelerated stability test” value in series [2] was “No change”.

For the compound ortho-acetylsalicylic acid [aspirin], the “reduction in collagen induced platelet aggregation assay” value in [14] was roughly 40%.
